Laboratory results: the NIST ThermoML archive (doi:10.1021/je800589e)
± gives the expanded uncertainty stated by the source.

Assay: xn = mol fraction of the nth substance listed
Details: Ring tensiometer

CCN1CCCC1=O [1-ethyl-2-pyrrolidinone] + O
surface tension liquid-gas [mN/m]
Details | 293.15 K | 298.15 K | 303.15 K | 313.15 K | 323.15 K
x1 = 0.0002 | 65.16 ± 0.95 | 62.84 | 60.76 ± 0.9 | 58.13 ± 29 | 53.44 ± 0.8
x1 = 0.0005 | 59.61 ± 1.1 | 57.85 ± 1.3 | 55.95 ± 1.2 | 53.14 ± 1.2 | 50.14 ± 0.84
x1 = 0.001 | 56.3 ± 0.91 | 54.77 ± 0.95 | 53.23 ± 0.91 | 51 ± 0.83 | 49 ± 0.75
x1 = 0.01 | 48.62 ± 0.76 | 47.51 ± 0.74 | 46.59 ± 0.71 | 45.11 ± 0.68 | 43.84 ± 0.66
x1 = 0.02 | 44.12 ± 0.61 | 43.28 ± 0.59 | 42.53 ± 0.58 | 41.4 ± 0.57 | 40.2 ± 0.56
x1 = 0.05 | 43.48 ± 0.59 | 42.53 ± 0.58 | 41.79 ± 0.57 | 40.32 ± 0.56 | 39.26 ± 0.54
x1 = 0.1 | 42.11 ± 0.58 | 41.22 ± 0.57 | 40.42 ± 0.56 | 39.3 ± 0.55 | 38.32 ± 0.53
x1 = 0.2 | 40.9 ± 0.57 | 40.09 ± 0.56 | 39.35 ± 0.55 | 38.43 ± 0.54 | 37.22 ± 0.52
x1 = 0.3 | 40.28 ± 0.56 | 39.44 ± 0.55 | 38.52 ± 0.54 | 37.59 ± 0.53 | 36.48 ± 0.52
x1 = 0.4 | 39.63 ± 0.56 | 38.73 ± 0.55 | 37.87 ± 0.53 | 36.87 ± 0.52 | 35.72 ± 0.51
x1 = 0.5 | 39.25 ± 0.55 | 38.23 ± 0.54 | 37.31 ± 0.53 | 36.2 ± 0.52 | 35.26 ± 0.51
x1 = 0.6 | 38.6 ± 0.55 | 37.89 ± 0.54 | 36.94 ± 0.53 | 35.83 ± 0.51 | 34.86 ± 0.5
x1 = 0.7 | 38.04 ± 0.55 | 37.01 ± 0.53 | 36.39 ± 0.52 | 35.35 ± 0.51 | 34.72 ± 0.5
x1 = 0.8 | 37.71 ± 0.54 | 36.63 ± 0.53 | 35.9 ± 0.52 | 35.08 ± 0.51 | 34.35 ± 0.5
x1 = 0.9 | 37.09 ± 0.54 | 36.17 ± 0.53 | 35.63 ± 0.52 | 34.72 ± 0.51 | 34 ± 0.5
x1 = 1 | 36.48 ± 0.53 | 35.65 ± 0.52 | 35 ± 0.52 | 34.35 ± 0.51 | 33.61 ± 0.5

O=C1CCCN1 [2-pyrrolidinone] + O
surface tension liquid-gas [mN/m]
Details | 293.15 K | 298.15 K | 303.15 K | 313.15 K | 323.15 K
x1 = 0.0002 | 60.4 ± 0.93 | 58.9 ± 27 | 57.3 ± 0.82 | 55.4 ± 7.2 | 53.2 ± 0.78
x1 = 0.0006 | 55.69 ± 1 | 54.6 ± 13 | 53.93 ± 1.2 | 52.2 ± 12 | 51.05 ± 0.78
x1 = 0.01 | 52.9 ± 0.72 | 51.68 ± 0.71 | 50.8 ± 0.7 | 49.8 ± 0.68 | 49.1 ± 0.67
x1 = 0.015 | 52.4 ± 0.7 | 51.19 ± 0.69 | 50.23 ± 0.68 | 49.3 ± 0.66 | 48.7 ± 0.66
x1 = 0.05 | 50.72 ± 0.69 | 49.58 ± 0.67 | 48.68 ± 0.66 | 47.77 ± 0.65 | 46.34 ± 0.63
x1 = 0.07 | 50.26 ± 0.68 | 49.28 ± 0.67 | 48.45 ± 0.66 | 47 ± 0.64 | 45.89 ± 0.63
x1 = 0.1 | 49.96 ± 0.68 | 48.91 ± 0.67 | 48 ± 0.65 | 46.49 ± 0.64 | 45.58 ± 0.63
x1 = 0.2 | 48.91 ± 0.68 | 48.08 ± 0.67 | 47.09 ± 0.65 | 45.89 ± 0.64 | 45.13 ± 0.63
x1 = 0.3 | 47.93 ± 0.68 | 47.17 ± 0.67 | 46.42 ± 0.66 | 45.43 ± 0.64 | 44.6 ± 0.63
x1 = 0.4 | 47.54 ± 0.68 | 46.87 ± 0.67 | 46.19 ± 0.66 | 45.28 ± 0.65 | 44.53 ± 0.64
x1 = 0.5 | 47.17 ± 0.69 | 46.72 ± 0.69 | 46.02 ± 0.68 | 45.21 ± 0.67 | 44.45 ± 0.66
x1 = 0.6 | 47.1 ± 0.71 | 46.64 ± 0.7 | 45.81 ± 0.69 | 44.91 ± 0.68 | 44.15 ± 0.67
x1 = 0.7 | 47.1 ± 0.72 | 46.42 ± 0.71 | 45.66 ± 0.7 | 45 ± 0.69 | 44.23 ± 0.68
x1 = 0.8 | 46.94 ± 0.74 | 46.42 ± 0.73 | 45.66 ± 0.72 | 44.68 ± 0.71 | 43.85 ± 0.7
x1 = 0.9 | 46.64 ± 0.76 | 46.11 ± 0.75 | 45.51 ± 0.74 | 44.53 ± 0.72 | 43.77 ± 0.71
x1 = 1 | 46.31 ± 0.77 | 45.81 ± 0.76 | 45.22 ± 0.75 | 44.12 ± 0.74 | 43.19 ± 0.72

CN1CCCC1=O [N-methylpyrrolidone] + O
surface tension liquid-gas [mN/m]
Details | 293.15 K | 298.15 K | 303.15 K | 313.15 K | 323.15 K
x1 = 0.0002 | 63.96 ± 1 | 61.5 | 59.25 ± 1 | 57 ± 12 | 55 ± 0.83
x1 = 0.0004 | 58.14 ± 1.1 | 56.58 ± 4.5 | 55.68 ± 1.5 | 53.77 ± 5.7 | 52.41 ± 0.84
x1 = 0.0006 | 55.21 ± 1.1 | 54.22 ± 2.6 | 53.41 ± 2.1 | 52.05 ± 4.3 | 50.87 ± 0.82
x1 = 0.001 | 53.5 ± 0.74 | 52.86 ± 2.6 | 52.23 ± 0.88 | 51.05 ± 1.2 | 50.14 ± 0.71
x1 = 0.005 | 52.4 ± 0.71 | 51.68 ± 0.7 | 50.87 ± 0.7 | 49.69 ± 0.68 | 48.78 ± 0.67
x1 = 0.01 | 51.6 ± 0.69 | 50.78 ± 0.68 | 50 ± 0.67 | 48.87 ± 0.66 | 48.05 ± 0.65
x1 = 0.03 | 50.2 ± 0.68 | 49.41 ± 0.66 | 48.53 ± 0.65 | 47.17 ± 0.64 | 45.56 ± 0.62
x1 = 0.1 | 49 ± 0.66 | 48.29 ± 0.65 | 47.49 ± 0.64 | 46.34 ± 0.63 | 44.6 ± 0.61
x1 = 0.2 | 48.05 ± 0.65 | 47.49 ± 0.65 | 46.61 ± 0.64 | 45.5 ± 0.62 | 43.7 ± 0.6
x1 = 0.4 | 46.05 ± 0.63 | 45.42 ± 0.63 | 44.94 ± 0.62 | 44 ± 0.61 | 42.4 ± 0.59
x1 = 0.5 | 45.26 ± 0.63 | 44.62 ± 0.62 | 44 ± 0.61 | 43.12 ± 0.6 | 41.81 ± 0.59
x1 = 0.6 | 44.46 ± 0.62 | 43.82 ± 0.61 | 43.1 ± 0.6 | 42.3 ± 0.59 | 41.18 ± 0.58
x1 = 0.7 | 43.66 ± 0.61 | 43 ± 0.61 | 42.38 ± 0.6 | 41.5 ± 0.59 | 40.46 ± 0.57
x1 = 0.8 | 42.78 ± 0.61 | 42.14 ± 0.6 | 41.66 ± 0.59 | 40.78 ± 0.58 | 39.74 ± 0.57
x1 = 0.9 | 41.98 ± 0.6 | 41.34 ± 0.59 | 40.94 ± 0.59 | 40.14 ± 0.58 | 39.27 ± 0.57
x1 = 1 | 41.26 ± 0.59 | 40.8 ± 0.59 | 40.38 ± 0.58 | 39.64 ± 0.57 | 38.68 ± 0.56

O [water] + CCN1CCCC1=O
x2 = 0
Details | surface tension liquid-gas [mN/m]
293.15 K | 72.65 ± 0.94
298.15 K | 72.05 ± 0.93
303.15 K | 71.21 ± 0.92
313.15 K | 69.52 ± 0.9
323.15 K | 67.92 ± 0.88

O [water] + CN1CCCC1=O
x2 = 0
Details | surface tension liquid-gas [mN/m]
293.15 K | 72.65 ± 0.94
298.15 K | 72.05 ± 0.93
303.15 K | 71.21 ± 0.92
313.15 K | 69.52 ± 0.9
323.15 K | 67.92 ± 0.88

O [water] + O=C1CCCN1
x2 = 0
Details | surface tension liquid-gas [mN/m]
293.15 K | 72.65 ± 0.94
298.15 K | 72.05 ± 0.93
303.15 K | 71.21 ± 0.92
313.15 K | 69.52 ± 0.9
323.15 K | 67.92 ± 0.88
